# Article PMC5858991 (Neuropharmacology, 2018)
# Values joined by “and” are separate entries in the source; they are usually repeats but may differ in a detail not shown here. Equal entries are not always repeated. Where two headings read alike, the source gives them in different places.
# What was measured:
# σ1R [1] = target: σ1R (Cavia porcellus, UniProt Q60492); assay: σ1R radioligand binding in guinea pig cortex with [3H]-
# σ1R homomer = σ1R homomer (Homo sapiens, UniProt Q99720); assay: Drug induced σ1R homomer BRET; format: cell-based; details: for effect on σ1R homomer BRET signaling: 2.5-60 min
# [2] = Experimentally determined pKa
# σ1R [3] = target: T1, σ1R (Homo sapiens, UniProt Q99720); format: binding; details: for displacement kinetics of [3H]-(+)-pentazocine: membrane preparation and whole cells, 15 min of incubation
# σ1R [4] = target: T1, σ1R; format: binding; details: HEK 293T membrane; for Ki: read-out: Ki ± SEM, competition vs. 3 nM [3H]-(+)-pentazocine
# σ1R [5] = target: T1, σ1R; format: binding; details: read-out: Ki ± SEM; competition vs. 2 nM [3H]-haloperidol, HEK 293T membrane
# [6] = read-out: Ki ± SEM, competition vs. 3 nM [3H]-(+)-pentazocine, guinea pig cortex
# [7] = single-ligand mode, σ1-NL:σ1-VN
# [8] = 1 μM haloperidol or 1 μM PD144418 added prior to tested ligand
# T1 sequence (Q99720 whole entry): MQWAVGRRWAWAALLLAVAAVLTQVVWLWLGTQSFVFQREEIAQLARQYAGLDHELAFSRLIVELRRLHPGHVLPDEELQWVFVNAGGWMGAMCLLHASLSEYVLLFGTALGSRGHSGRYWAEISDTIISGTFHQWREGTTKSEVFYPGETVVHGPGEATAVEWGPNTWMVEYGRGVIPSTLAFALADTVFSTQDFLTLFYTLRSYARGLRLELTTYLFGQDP
# Chain of σ1R homomer (Q99720 whole entry): as above
# Chain of σ1R homomer (Q99720 whole entry): as above
# Chain of σ1R (Cavia porcellus, UniProt Q60492) (Q60492 whole entry): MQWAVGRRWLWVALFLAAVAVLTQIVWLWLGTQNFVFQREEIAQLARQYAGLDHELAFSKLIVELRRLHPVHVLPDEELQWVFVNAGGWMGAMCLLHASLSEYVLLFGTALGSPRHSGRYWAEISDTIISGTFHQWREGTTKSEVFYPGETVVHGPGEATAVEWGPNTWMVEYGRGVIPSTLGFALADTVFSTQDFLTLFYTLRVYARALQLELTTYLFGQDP
structure (smiles),measurement,setting,value
c1ccc(CCCCN2CCC(c3ccccc3)CC2)cc1 [4-PPBP],Ki,σ1R [1]; [6],0.857 ± 0.153 nM
same,effect on σ1R homomer BRET in competition mode,σ1R homomer; in the presence of 1 μM PD144418,positive BRET signals were induced
same,effect on σ1R homomer BRET signaling,σ1R homomer; [7],positive dose-dependent induction of BRET signaling
CC(C)=CCN1CC[C@]2(C)c3cc(O)ccc3C[C@H]1[C@H]2C [(+)-pentazocine],pKa,[2],9.2 to 9.3
CCCCN1[C@@H]2CC[C@H]1CC(OC(c1ccc(F)cc1)c1ccc(F)cc1)C2 (some centres unmarked) [JHW007],displacement kinetics of [3H]-(+)-pentazocine,σ1R [3],immediate displacement
same,Ki,σ1R [4],0.554 ± 0.172 nM
same,Ki,σ1R [1]; [6],1.48 ± 0.289 nM
same,Ki,σ1R [5],1.85 ± 0.0579 nM
same,effect on σ1R homomer BRET in competition mode,σ1R homomer; [8],dose-dependent effects
same,effect on σ1R homomer BRET signaling,σ1R homomer; [7],no detectable effects on BRET signaling
CCCN(CCC)CCc1ccc(OC)c(OCCc2ccccc2)c1 [NE-100],displacement kinetics of [3H]-(+)-pentazocine,σ1R [3],immediate displacement
same,Ki,σ1R [1]; [6],1.14 ± 0.283 nM
same,effect on σ1R homomer BRET in competition mode,σ1R homomer; [8],dose-dependent effects
same,effect on σ1R homomer BRET signaling,σ1R homomer; [7],no detectable effects on BRET signaling
CCCN1CCC=C(c2cc(-c3ccc(C)cc3)no2)C1 [PD144418],Ki,σ1R [4],0.894 ± 0.11 nM
same,Ki,σ1R [1]; [6],0.842 ± 0.307 nM
same,Ki,σ1R [5],2.67 ± 0.578 nM
same,Emax (basal subtracted BRET change),σ1R homomer; [7],~0.02
same,effect on σ1R homomer BRET signaling,σ1R homomer; [7],positive dose-dependent induction of BRET signaling
"O=C(OCCN1CCOCC1)C1(c2ccccc2)CCCCC1 [PRE-084, 2-(4-morpholinethyl)1 phenylcyclohexanecarboxylate]",displacement of [3H]-(+)-pentazocine,"σ1R [3]; membrane preparation, 15 and 120 min",92.4–96.1%
same,displacement of [3H]-(+)-pentazocine,"σ1R [3]; whole cell assay, 15 min",60.6%
same,displacement of [3H]-(+)-pentazocine,"σ1R [3]; whole cell assay, 120 min",below 76.1%
same,effect on σ1R homomer BRET in competition mode,σ1R homomer; [8],dose-dependent effects
same,effect on σ1R homomer BRET signaling,σ1R homomer; [7],no detectable effects on BRET signaling
same,experimentally determined pKa,[2],6.2
CC(C)=CCN1CC[C@]2(C)c3cc(O)ccc3C[C@H]1[C@H]2C [[^3H]-(+)-pentazocine],Bmax ± SEM,σ1R [4]; [3H]-(+)-pentazocine,2080 fmol/mg and 2080 ± 163 fmol/mg
COC(=O)[C@H]1[C@@H](OC(=O)c2ccccc2)C[C@@H]2CC[C@H]1N2C [cocaine],Ki,σ1R [1],3710 ± 1170 nM
same,effect on σ1R homomer BRET in competition mode,σ1R homomer; [8],dose-dependent effects
same,effect on σ1R homomer BRET signaling,σ1R homomer; [7],no detectable effects on BRET signaling
